# Reference: publication PMC12048553, “Labels as a feature: Network homophily for systematically annotating human GPCR drug-target interactions” (Nature Communications, 2025)
# Target: CHRM3 (Homo sapiens, UniProt P20309)
# Test: yeast-expressed receptor NanoLuc screen at […], |Z-score| […]
# Assay type: cell-based
# CHRM3, sequence (P20309 whole entry): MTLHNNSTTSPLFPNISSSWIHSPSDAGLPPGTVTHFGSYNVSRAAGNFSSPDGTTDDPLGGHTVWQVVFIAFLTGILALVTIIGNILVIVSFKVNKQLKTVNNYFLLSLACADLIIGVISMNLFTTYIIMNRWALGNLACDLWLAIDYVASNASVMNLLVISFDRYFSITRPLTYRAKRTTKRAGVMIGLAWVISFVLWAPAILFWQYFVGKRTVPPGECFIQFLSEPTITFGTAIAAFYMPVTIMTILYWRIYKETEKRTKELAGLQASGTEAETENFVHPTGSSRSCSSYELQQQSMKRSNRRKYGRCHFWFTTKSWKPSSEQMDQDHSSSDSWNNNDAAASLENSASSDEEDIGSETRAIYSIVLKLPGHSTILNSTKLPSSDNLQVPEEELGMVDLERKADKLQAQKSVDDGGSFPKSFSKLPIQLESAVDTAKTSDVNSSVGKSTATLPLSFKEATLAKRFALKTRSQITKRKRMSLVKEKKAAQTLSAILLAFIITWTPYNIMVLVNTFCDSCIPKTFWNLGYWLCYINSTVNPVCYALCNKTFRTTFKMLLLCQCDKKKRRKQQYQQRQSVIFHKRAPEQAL
compound,measurement,value
CC(C)OC(=O)CCC/C=C\C[C@@H]1[C@@H](CC[C@@H](O)CCc2ccccc2)[C@H](O)C[C@@H]1O [Latanoprost],"yeast-expressed receptor NanoLuc screen at 10 uM, |Z-score| > 3",Latanoprost for mitigating increased intraoccular pressure may be partially explained by the observed interaction with CHRM3
